From patent US12351574B2, “Selective ligands for modulation of GIRK channels” (Northeastern University, priority 2018, dated 2025)
“And” between values parts separate entries of the source, which are not always exact repeats. Equal entries are not always repeated. “Also recorded” adds a separate entry of the source. Where two headings read alike, the source gives them in different places.

Molecular target: T1, GIRK1/2 (UniProt P48542+P48549)
T1 sequence (P48549 1-501): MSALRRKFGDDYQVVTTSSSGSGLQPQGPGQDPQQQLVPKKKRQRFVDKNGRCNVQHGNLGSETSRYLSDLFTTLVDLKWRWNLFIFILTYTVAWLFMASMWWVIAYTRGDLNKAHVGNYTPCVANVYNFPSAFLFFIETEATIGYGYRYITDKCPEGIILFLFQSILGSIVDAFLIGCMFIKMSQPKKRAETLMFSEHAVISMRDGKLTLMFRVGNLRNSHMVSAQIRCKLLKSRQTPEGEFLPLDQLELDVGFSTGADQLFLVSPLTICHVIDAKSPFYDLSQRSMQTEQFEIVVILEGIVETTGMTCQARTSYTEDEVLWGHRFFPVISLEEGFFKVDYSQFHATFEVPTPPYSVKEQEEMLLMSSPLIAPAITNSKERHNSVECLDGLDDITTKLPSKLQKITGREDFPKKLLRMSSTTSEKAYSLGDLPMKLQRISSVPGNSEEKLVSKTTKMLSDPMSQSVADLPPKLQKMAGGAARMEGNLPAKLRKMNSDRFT
T1 sequence (P48542 1-425): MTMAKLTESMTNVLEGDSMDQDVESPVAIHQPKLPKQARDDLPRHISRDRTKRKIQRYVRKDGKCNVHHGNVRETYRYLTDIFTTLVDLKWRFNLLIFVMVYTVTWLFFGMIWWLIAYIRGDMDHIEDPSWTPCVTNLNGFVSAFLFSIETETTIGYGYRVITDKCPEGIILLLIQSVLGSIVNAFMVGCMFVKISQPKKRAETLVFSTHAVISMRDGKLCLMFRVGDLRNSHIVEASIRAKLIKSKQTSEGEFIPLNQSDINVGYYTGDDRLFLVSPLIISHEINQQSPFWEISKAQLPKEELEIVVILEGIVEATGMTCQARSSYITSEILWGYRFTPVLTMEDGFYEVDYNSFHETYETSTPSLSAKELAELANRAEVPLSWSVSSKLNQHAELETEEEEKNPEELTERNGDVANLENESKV
Assay: two-electrode voltage clamp (TEVC) in Xenopus oocytes expressing GIRK1/2 wild-type
Assay type: cell-based, human GIRK1, mouse GIRK2
Parameters: expressed in transfected cells; host or cells: Xenopus laevis oocytes (cRNA injection)
Details: for selectivity for GIRK1/2 over GIRK1/4 (in words) / EC50: TEVC; for selectivity for GIRK1/2 over GIRK1/4 (in words): GIRK1/2 versus GIRK1/4; for EC50: Xenopus oocytes, GIRK1/2 wild-type; for EMAX at GIRK1/2: current normalized to basal current
From the text: Molecular biology: For Xenopus oocyte expression, human GIRK1 and human GIRK4 cDNAs were subcloned into pGEMHE. For mammalian expression, human GIRK1 and human GIRK4 cDNAs were subcloned into pcDNA3 and pcDNA3.1/V5-His B, respectively (Invitrogen). Mouse GIRK2 cDNA was subcloned in the dual-function vector, pXoom. Point mutations were introduced using a standard Pfu-based mutagenesis technique according to the QuikChange protocol (Agilent). Mutations were verified by sequencing.
Xenopus laevis oocyte expression: Plasmid DNAs of GIRK channel subunits were linearized prior to in vitro transcription. Capped RNAs were transcribed using mMESSAGE mMACHINE T7 Transcription Kit (Thermo Fisher Scientific). Xenopus oocytes were surgically extracted, dissociated and defolliculated by collagenase treatment, and microinjected with 50 nl of a water solution containing 1 ng of each GIRK subunit RNA. For TEVC experiments, oocytes were kept 2 days at 17° C. before recording, while for NPo experiments oocytes were incubated for up to 4 days at 17° C.
Xenopus laevis oocyte expression: All cDNA constructs in the pGEMHE vector were linearized using the NheI restriction enzyme, whereas those in the pXoom vector were linearized using the XhoI restriction enzyme. Linearized cDNAs were in vitro-transcribed using the mMessage mMachine® kit (Ambion) kit. Complementary RNA (cRNA) concentrations were quantified by optical density. Xenopus oocytes were surgically extracted, dissociated, and defolliculated by collagenase treatment and microinjected with 50 nl of the desired cRNAs diluted in RNAase-free water. The use of Xenopus laevis frogs for this study was approved by the Institutional Animal Care and Use Committee (IACUC) at Northeastern University. All constructs used in this study were injected to achieve between 1-2 ng per oocyte depending on the channel. Oocytes were incubated for 2 days at 18° C.
Electrophysiology of oocytes: Whole-oocyte currents were measured by conventional two-electrode voltage clamp (TEVC) with a GeneClamp 500 amplifier (Axon Instruments). […] Barium-sensitive currents were normalized to average basal current in the vehicle solutions. The HK solution contained the following: 96 mM KCl, 1 mM NaCl, 1 mM MgCl2, 5 mM KOH/HEPES, pH 7.4. The barium solution consisted of HK+10 mM BaCl2. Five to ten oocytes from the same batch (same frog) were recorded for each group, and the experiments were repeated in at least four batches. Data acquisition and analysis were carried out using pClamp9 (Molecular Devices) and OriginPro (Microcal) software.

[1] = ML297 considered 100%, read-out: EMAX at GIRK1/2, % relative to ML297

| GAT1508-induced potassium current, GIRK1/2 (in words) (10 μM, 10 mM K+, holding potential −100 mV) | GAT1508-induced thallium current, GIRK1/2 (in words) (10 μM, 10 mM thallium, holding potential −100 mV) | Emax (GAT1508 at wild-type GIRK1/2 considered 100%, read-out: EMAX, % of the control GIRK1/2) | Emax [1] | EC50 | EMAX at GIRK1/2 | compound-induced current normalized to the basal current, GIRK1+GIRK2 (10 μM, High Potassium (HK) solution, FIG. 31) | EMAX at GIRK1/2, % relative to ML297 (ML297 considered 100%) | potency/efficacy compared to GAT1508 (in words) (concentration-response, FIGS. 34A-34I) | SMILES | selectivity for GIRK1/2 over GIRK1/4 (in words) |
| --- | --- | --- | --- | --- | --- | --- | --- | --- | --- | --- |
| significantly increased currents | induced current increases | 100% | 76% | 370 ± 110 nM | 2.42±0.07 and 2.36±0.23 |  |  |  | Cc1cc(NC(=O)Nc2ccc(Br)s2)n(-c2ccccc2)n1 [GAT1508, 1-(5-bromothiophen-2-yl)-3-(3-methyl-1-phenyl-1H-pyrazol-5-yl)urea] | most selective GIRK1/2 activators relative to GIRK1/4; also recorded: could induce the current increase only in the brain channel |
|  |  |  |  | 340 ± 120 nM | 2.87±0.11 | ~2.5 | 100% |  | Cc1cc(NC(=O)Nc2ccc(F)c(F)c2)n(-c2ccccc2)n1 [ML297, reference compound] | stimulated both brain and cardiac heteromeric channels |
|  |  |  | 73% | 1220 ± 80 nM | 2.36±0.06 |  |  | lower potency than GAT1508 | Cc1cc(NC(=O)Nc2ccc(C)s2)n(-c2ccccc2)n1 [GAT1521, 1-(3-methyl-1-phenyl-1H-pyrazol-5-yl)-3-(5-methylthiophen-2-yl)urea] | most selective GIRK1/2 activators relative to GIRK1/4; also recorded: retained the specificity for brain over cardiac currents; also recorded: could induce the current increase only in the brain channel |
